Assay results: patent US12109195B2, “Compositions and methods for treatment of vaginal infections” (priority 2020, dated 2024)
Structures can show the parent of a compound that is named as a salt.

Assays:
G. vaginalis = test: Minimum inhibitory concentration (MIC) against G. vaginalis, two-fold dilutions in 96-well plates; format: cell-based; details: Gardnerella vaginalis; after 48 hours; tested 0.0625 to 16 mg/mL; FIG. 1A; read-out: concentration showing significant inhibition of growth of G. vaginalis (MIC)
Method: Formulations of creatinine hydrochloride were prepared in different concentrations to evaluate the effect on the inhibition of growth of G. vaginalis. Creatinine hydrochloride was used in varying concentrations ranging from 0.0625 mg/mL to 16 mg/mL. The minimum inhibitory concentration (MIC) for each solution was determined against G. vaginalis using two-fold dilutions and flat-bottom 96-well plates.

M. mulieris = test: Minimum inhibitory concentration (MIC) against M. mulieris, two-fold dilutions in 96-well plates; format: cell-based, Mobiluncus mulieris; details: FIG. 2A
Method: The minimum inhibitory concentration (MIC) for each solution was determined against M. mulieris using two-fold dilutions and flat-bottom 96-well plates. […] Methods for Antimicrobial Susceptibility Testing of Anaerobic Bacteria; Approved Standard—6th Edition).

SMILES: CN1CC(=O)NC1=N [creatinine hydrochloride]
- MIC (G. vaginalis): 4000 µg/mL
- MIC (M. mulieris; Mobiluncus mulieris, after 48 hours, tested 0.0625 to 16 mg/mL, read-out: concentration that inhibited growth of M. mulieris (MIC)): 4000 µg/mL
- concentration that still inhibited growth of M. mulieris (M. mulieris; after 72 hours): 8 mg/mL
